The test system of one data set is MDCK cell monolayers. The data set is described as follows: filamentous actin staining (rhodamine-phalloidin) of wounded MDCK monolayers. The class given is cell-based, canine. As to conditions: 50 μM; 12 hours after wounding. Here is the method: Although formation of perimarginal actin bundles is not required for wound closure in this system, these actin bundles may help to distribute force in the first row of cells from actively protruding and moving cells to less-actively motile cells, thus making the closure process more regular and uniform than it would be otherwise.
Filamentous actin staining: MDCK cell mono-layers on glass coverslips-were fixed with 3.7% formaldehyde in PBS 12 hours after wounding. Cells were permeabilized with 0.1% (w/v) TRITONO X-100 in PBS, stained with 50 nM tetramethylrhodamine-conjugated phalloidin in PBS, and washed twice with PBS. Coverslips were mounted in 90% glycerol/10% ten strength PBS with 2 mg/mL p-phenylenediamine on glass slides and then examined by fluorescence microscopy.

For another data set, the system named is Staphylococcus aureus. In words: bacterial growth (absorbance at 600 nm). The class given is cell-based. As to conditions: 50 μM; for absorbance at 600 nm: mean ± SEM. Here is the method: (§1) Reported values are the mean ±SEM for triplicate samples.
(§2) Bacterial growth: Staphylococcus aureus or Escherichia coli (DH5a strain) were grown in Luria-Bertani (LB) medium for 12 hours at 37° C. in a shaking incubator. Dilutions into fresh LB medium with 0.1% DMSO (solvent carrier control) or 50 μM compound 1 were made to an absorbance at 600 nm (A600) of about 0.1. Bacteria were incubated at 37° C. with shaking during the experiment, and A600 measurements were made at set time intervals during log growth phase until the plateau phase was reached.

The test system of data set [1] is Escherichia coli (DH5a strain). The data set is described as follows: bacterial growth (absorbance at 600 nm). The class given is cell-based. As to conditions: 50 μM. Here is the method: as §1, §2
Data set [2] relates to MDCK cells. The data set is described as follows: MDCK cell proliferation. The class given is cell-based, canine. As to conditions: 50 μM. How it is done:
In FIG. 2A, cells were plated at low cell density (1×10^4 cells/mL) and allowed to attach and begin to grow for 48 hours prior to the start of experiment. The treatments were 0.1% DMSO (control, n=9 cultures), 50 μM compound 1 (n=8), or 50 μM compound 11 (n=7). Reported values are mean with SEM of the percent increase in cell number from 0 to 48 hours after addition of compound 1.
The values were mean with SEM of the percent increase in cell number another 48 hours after replacement of medium containing 50 μM compound 1 (n=8 cultures) or 0.1% DMSO (n=9) with fresh medium containing 0.1% DMSO.
MDCK cell proliferation: MDCK cells were plated on multiwell tissue culture plates at low density ([…]). Cells were allowed to attach and begin to grow for 48 hours before the start of the experiment. Fresh medium with or without compound was then added, and cells were incubated for 48 hours. At both 0 and 48 hours, some of the parallel wells for control and compound treatments were washed twice with PBS and treated with trypsin/EDTA solution to detach the cells. An equal volume of medium was added, cells were collected and counted using a hemacytometer. For reversibility, some of the parallel cultures for both control and compound treatments were grown another 48 hours after washing twice with PBS and replacing medium with fresh compound-free medium. At both the time of washing out and 48 hours later, some of the parallel wells for control and compound treatments were washed twice with PBS, detached from the plates with trypsin/EDTA solution, and the number of cells was counted.

Data set [3] has as its system Madin-Darby canine kidney (MDCK) cell monolayers. In words: scrape-wound closure assay in MDCK cell monolayers. As to conditions: for IC50: Canis lupus familiaris, MDCK, 12 h. It counts as cell-based. The text has this:
A method of determining the ability of a compound to inhibit or accelerate cell motility is a scrape-wound closure assay using cultured mammalian epithelial cell monolayers. Mechanical scraping of the epithelial monolayer induces cell sheet migration into the resulting gap, a phenomenon characteristic of wounded epithelia and mechanistically related to normal epithelial movements during embryonic morphogenesis (A. Jacinto et al., Nat. Cell Biol, 3, E117 (2001)). Epithelial cell sheet migration in this method proceeds by a Rac- and phosphoinositide-dependent cell crawling mechanism resembling the motility of other animal cells that move as individuals rather than as cell sheets (G. Fenteany et al., Curr. Biol., 10, 831 (2000)).
Wound closure in MDCK cell monolayers primarily involves cell spreading and motility rather than proliferation based on observations and treatments that block cell growth without inhibiting closure. However, after closure is complete and the gap is covered, cell division is observed in the former wound area, presumably as part of a homeostatic mechanism to regain the original cell density (M. F. Olson et al., Science, 269, 1270 (1995)). Wound closure involves Rac- and phosphoinositide-dependent actin polymerization and protrusion-driven cell crawling behavior, where force generation for movement is distributed from the wound margin to several rows of cells behind the margin. Accordingly, this method is excellent for determining whether a compound affects cell motility.
Cell culture conditions: Madin-Darby canine kidney (MDCK) cells (American Type Culture Collection cell line CCL-34) were cultured in Minimum Essential Medium (with Earle's balanced salts, non-essential amino acids, L-glutamine and sodium pyruvate) supplemented with 10% newborn calf serum at 37° C. and 5% carbon dioxide (CO2). Main cultures were grown in either […] tissue culture flasks with medium changes every two days. When cultures were about 75% confluent, cells were passaged by rinsing twice with single strength phosphate buffered saline (PBS) and treating with a solution of 0.05% (w/v) trypsin/0.02% (w/v) ethylenediaminetetraacetic acid (EDTA) in PBS to detach cells from the flasks. After cells were detached, an equal volume of serum-containing medium was added to inhibit the trypsin and cell density was determined using a hemacytometer. Cells were replated following dilution in fresh medium on new tissue culture flasks for continued culture and multiwell tissue culture plates for experiments. No culture used exceeded 15 passages. Experimental cultures were grown in 12-, 24-, 48-, or 96-well tissue culture plates with medium changes every two days.
Wound closure assay and compound screening: MDCK cells were plated on multiwell tissue culture plates and cultured at 37° C. and 5% CO2 with medium changes every two days until confluent. When the cultures reached confluence, medium was changed again and all experimental treatments were begun a day later. Compounds were solubilized in dimethyl sulfoxide (DMSO) and added with fresh-medium to cell cultures at initial screening concentrations of 10 and 100 μM. Controls consisted of parallel wells to-which DMSO solvent carrier alone was added at the same concentration as that added with experimental treatments (not exceeding 0.1% (v/v)). DMSO alone at this concentration had no detectable effect on the cells. Monolayers were scraped 30 min later with a micropipette and ultramicro tips, allowing small wounds of consistent size to be generated. Progress of wound closure was examined at set time intervals following wounding by microscope, and inhibitory or acceleratory effects on wound closure relative to parallel controls noted. […] Digital images of the wounded monolayers were taken every 2 hours for 18 hours, and then at 30, 36, 54, 60, and 72 hours following wounding. The number of lamellipodia at the wound margin was also counted at these times. […]

In data set [4] the test system is MDCK cells. In words: Trypan blue exclusion cell viability assay. The class given is cell-based, canine. The text has this:
Cells also remain normal in morphology with both cell-substratum and cell-cell adhesion intact after treatment with compound 1.

The structures appear in SMILES notation. “Also recorded” adds a separate entry of the source. Where two headings read alike, the source gives them in different places.

What is called IC50 is the concentration that inhibits the measured activity by half.

Turning to `C/C=C/C(=O)N1C(=O)OC[C@@H]1Cc1ccccc1` [Compound 1, (4S)-3-((E)-2-butenoyl)-4-benzyl-2-oxazolidinone], in the data set with MDCK cell monolayers, the “formation of filamentous actin bundles at wound margin” value is on record as “did not affect formation of filamentous actin bundles”. The “inhibition of growth of Staphylococcus aureus (Gram-positive)” value in the data set with Staphylococcus aureus is recorded as “does not inhibit the growth”. Further, the “absorbance at 600 nm” value in the data set with Staphylococcus aureus (0 hours) is on record as 0.117 ± 0.037; in the data set on Staphylococcus aureus (1 hours) it was 0.160 ± 0.056; in the data set with Staphylococcus aureus (2 hours), 0.332 ± 0.130; in the data set with Staphylococcus aureus (3 hours), 0.615 ± 0.162; in the data set on Staphylococcus aureus (4 hours), 0.937 ± 0.181; in the data set on Staphylococcus aureus (27 hours) it was 3.265 ± 0.196. The “absorbance at 600 nm” value with Staphylococcus aureus (31 hours) was 3.608 ± 0.271. Moreover, the “inhibition of growth of Escherichia coli (Gram-negative)” value in data set [1] is recorded as “does not inhibit the growth”. Besides, the “inhibition of MDCK cell proliferation (percent increase in cell number)” value in the data set with MDCK cells [2] (0 to 48 hours) is given as “reversibly inhibited MDCK cell proliferation”. Also, the “reversibility of inhibition of cell proliferation” value in the data set with MDCK cells [2] (another 48 hours after washing out) is “reversible”. Also, the IC50 in data set [3] (read-out: calculated IC50 for inhibition of wound closure at 12 hours) and in data set [3] (read-out: log IC50±standard error of log IC50 (converted)) was 14 µM throughout. In addition, the “inhibition of cell motility / epithelial cell sheet migration during wound closure” value in data set [3] (MDCK cells, p<0.05) was “potent inhibitor of cell motility; also recorded: inhibits epithelial cell sheet migration during wound closure”. The “inhibition of wound closure in serum-free conditions” value in data set [3] (serum-free) was “inhibited wound closure to a similar degree relative to the control”. The “reversibility of inhibition of wound closure” value in data set [3] (upon changing to compound-free medium) is on record as “reversible”. The “toxicity at concentrations that inhibit cell migration” value in the data set on MDCK cells [4] is “no general toxicity; also recorded: no evidence of toxicity or metabolic distress”.

The record behind these values is patent publication US7390826B2, “Inhibitors of animal cell motility and growth” (The Board of Trustees of The University of Illinois, priority 2002, dated 2008).
